Where no end group is shown, it is not given here.
How the values were obtained:
HIV-1IIIB = test: HIV-1 antiviral assay in CEM-SS cells (MTS readout); type: cell-based
HCMV strain AD169 = test: HCMV plaque formation assay in MRC-5 cells; conditions: for inhibition of HCMV plaque formation as compared to the virus control: 10 micrograms per ml, 7-10 days
[1] = system: Primary Human endothelial cells (HUVEC); test: Endothelial cell migration assay; type: cell-based; conditions: 10 micrograms per ml, 22 hours
HUVEC = test: Endothelial tube formation assay; type: cell-based, human; conditions: 10 micrograms per ml, 20 hours
[2] = system: hepatitis B virus (HBV) ayw strain in HepG2-2.2.15 cells; test: HBV experimental assay system, secreted HBV DNA by TaqMan PCR; type: cell-based; conditions: 10 micrograms per ml, six days
Excerpt: HepG2-2.2.15 is a stable cell line containing the hepatitis B virus (HBV) ayw strain genome (ATCC Cat. No. CRL-11997). Antiviral compounds blocking any late step of viral replication such as transcription, translation, pregenome encapsidation, reverse transcription, particle assembly and release can be identified and characterized using this cell line. In this assay, an active compound will reduce the production of secreted HBV from cells, measured by utilizing real time quantitative PCR (TaqMan) assay to directly and accurately measure HBV DNA copies.
HepG2-2.2.15 cells were plated in 96-well microtiter plates. After 16-24 hours the confluent monolayer of HepG2-2.2.15 cells was washed and the medium was replaced with complete medium containing test peptides—10 micrograms per ml—in duplicate. […] Six days following the initial administration of the peptides, the cell culture supernatants was collected, treated with pronase and DNAse and then used in a real-time quantitative TaqMan PCR assay. The PCR-amplified HBV DNA was detected in real-time by monitoring increases in fluorescence signals that result from the exonucleolytic degradation of a quenched fluorescence probe molecule that hybridizes to the amplified HBV DNA. […] Antiviral activity was calculated from the reduction in HBV DNA levels (% virus control). […]

[3] = system: spleen cells of Ovalbumin-immunized Balb/c mice; test: Th1/Th2 cytokine profiling assay (Ovalbumin-restimulated spleen cells, CBA kit); type: cell-based, mouse; conditions: 10 micrograms per ml; Ovalbumin restimulation; 72 hours
Excerpt: The Balb/c mice (originated in 1923, it is a popular strain and is used in many different research disciplines. […] On day 50, spleens of the mice were harvested (3 weeks after last boost with Ovalbumin). […] This kit can be used to measure Interleukin-2 (IL-2), Interleukin-4 (IL-4), Interleukin-5 (IL-5), Interferon-γ (IFN-γ), and Tumor Necrosis Factor-α (TNF-α) protein levels in a single sample. The kit performance has been optimized for analysis of physiologically relevant concentrations ([…] levels) of specific cytokine proteins in tissue culture supernatants and serum samples.

| Compound | antiviral activity of positive control compounds (HIV-1) (HIV-1IIIB) | antiviral activity of positive control compound (HCMV) (HCMV strain AD169; positive control) | inhibition of the migration of human endothelial cells [1] | inhibition of the tube formation of endothelial cells (HUVEC) | inhibition of HBV replication as compared to the virus control infection [2] | IFNγ spleen cells; TH1 response (% of control) [3] | IL-2 spleen cells (% of control) [3] | IL-4 spleen cells; TH2 response (% of control) [3] | IL-5 spleen cells; TH2 response (% of control) [3] | TNF-a spleen cells; TH1 response (% of control) [3] | inhibition of HCMV plaque formation as compared to the virus control (HCMV strain AD169) |
| --- | --- | --- | --- | --- | --- | --- | --- | --- | --- | --- | --- |
| Cc1cn([C@H]2C[C@H](N=[N+]=[N-])[C@@H](CO)O2)c(=O)[nH]c1=O [AZT] | expected levels of antiviral activity | – | – | – | – | – | – | – | – | – | – |
| Nc1nc(O)c2ncn(COC(CO)CO)c2n1 [Ganciclovir, reference compound] | – | expected levels of antiviral activity | – | – | – | – | – | – | – | – | – |
| CC(C)(C)NC(=O)[C@@H]1CN(Cc2cccnc2)CCN1C[C@@H](O)C[C@@H](Cc1ccccc1)C(=O)N[C@H]1c2ccccc2C[C@H]1O [indinavir] | expected levels of antiviral activity | – | – | – | – | – | – | – | – | – | – |
| Gly-Trp-Thr-Leu-Asn-Ser-Ala-Gly-Tyr-Leu-Leu-Gly-Pro-His-Ala-Val-Gly-Asn-His-Arg-Ser-Phe-Ser-Asp-Lys-Asn-Gly-Leu-Thr-Ser-OH [peptide 1] | – | – | 29% | 11% | no effect | 144.1 % of control | 149.6 % of control | 115.3 % of control | 78.8 % of control | 118.8 % of control | did not inhibit |
| Ile-Tyr-Leu-Gly-Gly-Pro-Phe-Ser-Pro-Asn-Val-Leu-OH (IYLGGPFSPNVL-OH) [peptide 2] | – | – | did not inhibit | 29% | 34.1% | 102.8 % of control | 150.7 % of control | 182.0 % of control | 73.5 % of control | 114.1 % of control | did not inhibit |
